In test [1] the target is T1, Peroxisome proliferator-activated receptor gamma (Homo sapiens) (UniProt P37231).
T1 sequence (whole entry): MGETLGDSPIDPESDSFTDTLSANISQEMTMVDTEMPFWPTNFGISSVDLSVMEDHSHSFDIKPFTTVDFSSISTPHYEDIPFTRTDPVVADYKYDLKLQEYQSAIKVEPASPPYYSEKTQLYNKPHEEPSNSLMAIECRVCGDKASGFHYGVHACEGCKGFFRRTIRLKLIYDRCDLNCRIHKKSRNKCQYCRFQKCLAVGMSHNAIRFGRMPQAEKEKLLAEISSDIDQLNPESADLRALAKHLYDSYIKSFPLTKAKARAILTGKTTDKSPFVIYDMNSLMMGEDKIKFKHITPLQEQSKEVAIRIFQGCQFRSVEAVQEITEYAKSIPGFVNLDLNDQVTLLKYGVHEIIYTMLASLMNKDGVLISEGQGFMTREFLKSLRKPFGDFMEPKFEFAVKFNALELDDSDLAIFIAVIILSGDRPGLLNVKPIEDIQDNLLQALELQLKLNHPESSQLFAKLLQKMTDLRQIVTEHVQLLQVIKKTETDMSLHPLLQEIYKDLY
The experiment in a line: Transactivation of Gal4-tagged PPARgamma ligand binding domain (unknown origin) expressed in COS7 cells at 30 uM measured after overnight incubation by luciferase reporter gene assay. To be noted: COS-7. The class given is cell-based.

Test [2] deals with T2, Peroxisome proliferator-activated receptor delta (Homo sapiens) (UniProt Q03181).
T2 sequence (whole entry): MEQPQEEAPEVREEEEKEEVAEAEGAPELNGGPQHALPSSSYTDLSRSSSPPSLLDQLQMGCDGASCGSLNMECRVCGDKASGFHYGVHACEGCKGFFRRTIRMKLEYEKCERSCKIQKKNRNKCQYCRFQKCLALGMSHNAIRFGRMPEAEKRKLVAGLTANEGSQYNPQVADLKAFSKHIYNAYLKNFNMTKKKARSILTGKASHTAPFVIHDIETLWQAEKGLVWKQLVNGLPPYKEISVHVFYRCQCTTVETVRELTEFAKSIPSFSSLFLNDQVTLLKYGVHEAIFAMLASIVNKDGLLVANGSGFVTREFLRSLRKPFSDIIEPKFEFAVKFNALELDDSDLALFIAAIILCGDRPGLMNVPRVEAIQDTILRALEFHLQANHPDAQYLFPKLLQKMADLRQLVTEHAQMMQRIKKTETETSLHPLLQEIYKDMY
The experiment in a line: Transactivation of Gal4-tagged PPARdelta ligand binding domain (unknown origin) expressed in COS7 cells at 30 uM measured after overnight incubation by luciferase reporter gene assay. The class given is cell-based. To be noted: COS-7.

For test [3], the target named is T3, Bile acid receptor (Homo sapiens) (UniProt Q96RI1).
T3 sequence (whole entry): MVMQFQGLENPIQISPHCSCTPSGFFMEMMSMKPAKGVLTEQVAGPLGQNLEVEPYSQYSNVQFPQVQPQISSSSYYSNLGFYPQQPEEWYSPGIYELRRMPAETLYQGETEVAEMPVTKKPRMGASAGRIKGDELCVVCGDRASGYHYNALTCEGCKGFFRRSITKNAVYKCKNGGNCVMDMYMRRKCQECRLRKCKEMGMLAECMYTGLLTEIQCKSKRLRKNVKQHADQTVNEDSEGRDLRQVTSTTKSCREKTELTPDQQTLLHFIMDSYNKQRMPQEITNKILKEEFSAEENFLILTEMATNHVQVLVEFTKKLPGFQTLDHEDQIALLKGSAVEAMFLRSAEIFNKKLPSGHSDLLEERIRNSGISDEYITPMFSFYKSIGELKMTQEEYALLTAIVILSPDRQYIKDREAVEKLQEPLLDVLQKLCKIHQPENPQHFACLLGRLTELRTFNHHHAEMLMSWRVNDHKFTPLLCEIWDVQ
The experiment in a line: Transactivation of human FXR expressed in human HeLa cells at 30 uM incubated for 24 hrs by luciferase reporter gene assay. The class given is cell-based.

Test [4] concerns the target T4, Peroxisome proliferator-activated receptor alpha (Homo sapiens) (UniProt Q07869).
T4 sequence (whole entry): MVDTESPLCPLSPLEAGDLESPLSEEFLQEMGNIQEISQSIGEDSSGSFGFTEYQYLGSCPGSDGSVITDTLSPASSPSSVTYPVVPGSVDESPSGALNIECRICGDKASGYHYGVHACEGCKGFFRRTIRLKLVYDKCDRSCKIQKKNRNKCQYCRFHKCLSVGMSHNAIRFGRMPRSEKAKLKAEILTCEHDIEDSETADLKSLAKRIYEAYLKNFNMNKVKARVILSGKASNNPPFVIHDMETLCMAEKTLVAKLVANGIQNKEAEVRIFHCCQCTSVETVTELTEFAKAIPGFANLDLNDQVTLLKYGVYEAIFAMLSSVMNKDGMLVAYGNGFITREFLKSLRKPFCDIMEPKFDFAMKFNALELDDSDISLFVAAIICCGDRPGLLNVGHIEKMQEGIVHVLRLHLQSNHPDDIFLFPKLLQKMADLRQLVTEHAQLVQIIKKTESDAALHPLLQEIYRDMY
The experiment in a line: Transactivation of Gal4-tagged PPARalpha ligand binding domain (unknown origin) expressed in COS7 cells at 30 uM measured after overnight incubation by luciferase reporter gene assay. The settings on record: COS-7. It is filed as cell-based.

Test [5] concerns the target T3, Bile acid receptor (Homo sapiens). The experiment in a line: Transactivation of human FXR expressed in human HeLa cells incubated for 24 hrs by luciferase reporter gene assay relative to GW4064. The class given is cell-based.
Test [6] concerns the target T1, Peroxisome proliferator-activated receptor gamma (Homo sapiens). The experiment in a line: Transactivation of Gal4-tagged PPARgamma ligand binding domain (unknown origin) expressed in COS7 cells measured after overnight incubation by luciferase reporter gene assay relative to piaglitazone. The class given is cell-based. The settings on record: Chlorocebus aethiops; COS-7.

In test [7] the target is T5, Peroxisome proliferator-activated receptor alpha (Homo sapiens, UniProt Q07869).
T5 sequence (Q07869 whole entry): T4 sequence (whole entry)
The experiment in a line: Transactivation of Gal4-tagged PPARalpha ligand binding domain (unknown origin) expressed in COS7 cells measured after overnight incubation by luciferase reporter gene assay. The class given is cell-based, COS-7.

For test [8], the target named is T6, Peroxisome proliferator-activated receptor delta (Homo sapiens, UniProt Q03181).
T6 sequence (Q03181 whole entry): T2 sequence (whole entry)
The experiment in a line: Transactivation of Gal4-tagged PPARdelta ligand binding domain (unknown origin) expressed in COS7 cells measured after overnight incubation by luciferase reporter gene assay. It is filed as cell-based, COS-7.

In test [9] the target is T7, Peroxisome proliferator-activated receptor gamma (Homo sapiens, UniProt P37231).
T7 sequence (P37231 whole entry): T1 sequence (whole entry)
The experiment in a line: Transactivation of Gal4-tagged PPARgamma ligand binding domain (unknown origin) expressed in COS7 cells measured after overnight incubation by luciferase reporter gene assay. It is filed as cell-based, COS-7.

In a further test the target is T8, Bile acid receptor (Homo sapiens, UniProt Q96RI1).
T8 sequence (Q96RI1 whole entry): T3 sequence (whole entry)
The experiment in a line: Transactivation of human FXR expressed in human HeLa cells incubated for 24 hrs by luciferase reporter gene assay. The class given is cell-based.

The target in test [10] is T2, Peroxisome proliferator-activated receptor delta (Homo sapiens). The experiment in a line: Transactivation of Gal4-tagged PPARdelta ligand binding domain (unknown origin) expressed in COS7 cells measured after overnight incubation by luciferase reporter gene assay relative to L165,041. The class given is cell-based. To be noted: Chlorocebus aethiops; COS-7.
In test [11] the target is T4, Peroxisome proliferator-activated receptor alpha (Homo sapiens). The experiment in a line: Transactivation of Gal4-tagged PPARalpha ligand binding domain (unknown origin) expressed in COS7 cells at 10 uM measured after overnight incubation by luciferase reporter gene assay. The class given is cell-based. To be noted: COS-7.

Active and inactive are the calls of the source. The calls are words filed in the database; no cut-off is given here.

As for `N#Cc1ccc(C(=O)Nc2ccccc2C(=O)Nc2cccc(CC(=O)O)c2)cc1`, the outcome in [1], in test [2], in [3] and in test [4] was inactive.

As for `O=C(O)Cc1cccc(NC(=O)c2ccccc2NC(=O)c2ccc(C(F)(F)F)cc2)c1`, the max activation in test [5] was 14.8%; in test [6], 161%; in test [10] it was 58%. Further, the EC50 in test [7] is 5.4 µM; in test [8], 2.2 µM; in test [9], 9.4 µM; at Bile acid receptor, 2.6 µM.

Consider `O=C(O)c1cccc(NC(=O)c2cc(Cl)ccc2NC(=O)c2ccc(C(F)(F)F)cc2)c1`, for which the max activation was determined as 16.9% in [5], 415% in test [6], 25% in [11] and 24% in test [10]. The EC50 in test [8] worked out at 6.3 µM; in test [9] it was 4.7 µM; at Bile acid receptor, 3.4 µM.

Take `CN(CCCC(=O)O)C(=O)c1ccccc1NC(=O)c1ccc2ccccc2c1`: the outcome in test [1], in [2], in [3] and in [4] was inactive.

Regarding `CC(C)(C)c1ccc(C(=O)Nc2ccccc2C(=O)Nc2cc(C(=O)O)ccc2F)cc1`, the outcome in test [2] was inactive. In addition, the max activation in test [5] is 12%; in [6], 735%; in [11], 17%. In test [9], this molecule had an EC50 of 5.8 µM.

On to `CC(C)(C)c1ccc(C(=O)Nc2ccccc2C(=O)Nc2cccc(CCC(=O)O)c2)cc1`, for which the result in test [2] was inactive. Moreover, the max activation turned out to be 22% in [5] and 175% in test [6]. The EC50 in test [7] stood at 5.4 µM; in test [9], 5 µM; on Bile acid receptor, 0.06 µM.

Turning to `O=C(O)CCCNC(=O)c1ccccc1NC(=O)C(c1ccccc1)c1ccccc1`, the result in test [1], in test [2], in test [3] and in test [4] was inactive.

Turning to `CN(C(=O)c1ccc2ccccc2c1)c1ccccc1C(=O)NCCCC(=O)O`, the result in test [1], in test [2], in test [3] and in test [4] was inactive.

As for `O=C(O)CCc1cccc(NC(=O)c2ccccc2NC(=O)c2ccc(C(F)(F)F)cc2)c1`, the max activation in [5] stood at 13%; in test [6], 70%; in [10], 120%. Besides, the EC50 was determined as 5.9 µM in test [7], 6.8 µM in test [8], 6.9 µM in test [9] and 2.3 µM at Bile acid receptor.

Take `O=C(O)c1cccc(NC(=O)c2ccc(Cl)cc2NC(=O)c2ccc(C(F)(F)F)cc2)c1`: the max activation in [5] turned out to be 17.8%; in [6], 420%; in test [10], 16.5%. The EC50 came to 18.6 µM in test [7], 3.4 µM in [8], 8.7 µM in [9] and 2.1 µM at Bile acid receptor.

For `CC(C)(C)c1ccc(C(=O)Nc2c(Cl)cccc2C(=O)Nc2cccc(C(=O)O)c2)cc1`, the result in test [1], in test [2], in test [3] and in test [4] was inactive.

In the case of `CC(C)(C)c1ccc(C(=O)Nc2ccccc2C(=O)Nc2cc(C(=O)O)ccc2Cl)cc1`, the outcome in test [2] was inactive. The results for the max activation in test [5], in test [6] and in [11] were 16%, 154% and 16%, respectively. The same molecule showed an EC50 in [9] of 1.9 µM.

On to `CC(C)(C)c1ccc(C(=O)Nc2cccc(Cl)c2C(=O)Nc2cccc(C(=O)O)c2)cc1`, for which the outcome in test [1], in test [2], in test [3] and in test [4] was inactive.

With `O=C(O)Cc1cccc(NC(=O)c2ccccc2NC(=O)c2ccc(SC(F)(F)F)cc2)c1`, the max activation in test [5] is 23%; in [6] it was 158%; in [10], 64%. The EC50 was found to be 1.3 µM in test [7], 2.3 µM in test [8], 4.4 µM in test [9] and 7 µM on Bile acid receptor.

Regarding `CC(C)(C)c1ccc(C(=O)Nc2ccccc2C(=O)Nc2cccc(C(N)=O)c2)cc1`, the result in [1], in [2] and in [4] was inactive. In [5], this molecule had a max activation of 15%. The same molecule gave an EC50 at Bile acid receptor of 0.07 µM.

Take `O=C(O)c1cccc(NC(=O)c2ccccc2NC(=O)c2cc(C(F)(F)F)cc(C(F)(F)F)c2)c1`: the outcome in [2] and in test [3] was inactive. Also, the max activation in test [6] came to 114%; in test [11], 15%. The molecule further gave an EC50 in test [9] of 11 µM.

In the case of `O=C(O)CCCNC(=O)c1ccccc1NC(=O)c1cccc2ccccc12`, the result in test [2] and in [3] was inactive. Moreover, the max activation in test [6] is 397%; in [11] it was 12%. Also, in test [9], the EC50 stood at 41 µM.

`O=C(O)c1cccc(NC(=O)c2c(Cl)cccc2NC(=O)c2ccc(C(F)(F)F)cc2)c1`: the outcome in test [1], in test [2], in [3] and in test [4] was inactive.

For the molecule `CSc1ccc(C(=O)Nc2ccccc2C(=O)Nc2cccc(CC(=O)O)c2)cc1`, the results for the max activation in test [5], in test [6] and in test [10] were 16.9%, 200% and 133%, respectively. The EC50 turned out to be 14.4 µM in test [7], 7.4 µM in test [8], 17.4 µM in test [9] and 8.5 µM at Bile acid receptor.
